SMILES strings stand for the structures.

The target of this test is HPK1 (Homo sapiens, UniProt Q92918). Nature of the test: SLP76 phosphorylation assay (intracellular HPK1 inhibitory activity, p-SLP76 S376 ELISA in Jurkat cells). The note with it: p-SLP76 IC50, Jurkat, Clone E6-1 cells; 1 h compound pre-incubation; anti-CD3 beads stimulation 20 min; Phospho-SLP-76 (Ser376) ELISA. On the technique in general: ELISA stands for enzyme-linked immunosorbent assay.
HPK1, sequence (Q92918 whole entry): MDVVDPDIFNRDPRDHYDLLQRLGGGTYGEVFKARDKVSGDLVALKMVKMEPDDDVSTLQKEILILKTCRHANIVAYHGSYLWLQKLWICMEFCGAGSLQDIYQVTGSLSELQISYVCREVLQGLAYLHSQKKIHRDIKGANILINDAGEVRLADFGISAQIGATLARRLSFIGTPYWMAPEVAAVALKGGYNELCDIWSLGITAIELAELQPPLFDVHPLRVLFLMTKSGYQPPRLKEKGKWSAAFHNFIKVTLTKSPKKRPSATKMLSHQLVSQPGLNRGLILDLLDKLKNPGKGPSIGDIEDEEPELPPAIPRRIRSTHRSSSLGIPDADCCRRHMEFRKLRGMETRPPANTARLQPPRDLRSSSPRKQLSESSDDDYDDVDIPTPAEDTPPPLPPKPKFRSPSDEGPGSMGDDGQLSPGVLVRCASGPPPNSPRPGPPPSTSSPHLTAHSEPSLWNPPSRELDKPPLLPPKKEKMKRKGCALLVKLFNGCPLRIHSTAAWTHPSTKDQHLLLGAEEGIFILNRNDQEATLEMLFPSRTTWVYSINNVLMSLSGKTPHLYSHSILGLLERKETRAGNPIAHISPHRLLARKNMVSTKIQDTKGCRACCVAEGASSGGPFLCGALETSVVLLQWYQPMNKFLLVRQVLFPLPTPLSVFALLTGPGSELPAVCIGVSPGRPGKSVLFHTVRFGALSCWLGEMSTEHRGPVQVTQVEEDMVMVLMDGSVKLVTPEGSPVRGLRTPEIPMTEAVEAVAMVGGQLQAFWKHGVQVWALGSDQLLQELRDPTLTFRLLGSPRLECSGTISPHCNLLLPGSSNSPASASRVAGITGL
One may read the IC50 as the concentration that gives 50% inhibition. A lower IC50 goes with greater potency in that assay. In the case of `O=C(N1CCc2cc(-c3cnc4[nH]cc(F)c4c3)cc([C@@H]3COCCN3)c2C1)N1CC2CCC(C1)O2` [Compound Z475], the half-inhibitory concentration (IC50) amounted to 117 nM. In other words, the sub-micromolar range.
In turn, `CN1C2CCC1CN(C(=O)N1CCc3cc(-c4cnc5[nH]cc(Cl)c5c4)cc([C@@H]4COCCN4)c3C1)C2` [Compound Z470] gave an IC50 of 127 nM.
In turn, `Cc1c[nH]c2ncc(-c3cc4c(c([C@@H]5COCCN5)c3)CN(C(=O)N3C[C@@H](C)O[C@@H](C)C3)CC4)cc12` [Compound Z519, ((2R,6S)-2,6-dimethylmorpholine)(6-(3-methyl-1H-pyrrolo[2,3-b]pyridin-5-yl)-8-((R)-morpholin-3-yl)-3,4-dihydroisoquinolin-2-1H-yl)methanone] displayed an IC50 of 197 nM. This IC50 lies about 1.6-fold higher than the previous one.
To `COc1c[nH]c2ncc(-c3cc4c(c([C@@H]5COCCN5)c3)CN(C(=O)N3CC5CCC(C3)O5)CC4)cc12` [Compound Z592] belongs 215 nM.
In the case of `CN1C2CCC1CN(C(=O)N1CCc3cc(-c4cnc5[nH]cc(Cl)c5n4)cc([C@@H]4COCCN4)c3C1)C2` [Compound Z575, (6-(7-chloro-5H-pyrrolo[2,3-b]pyrazin-2-yl)-8-((R)-morpholin-3-yl)-3,4-dihydroisoquinolin-2(1H)-yl)(8-methyl-3,8-diazabicyclo[3.2.1]octan-3-yl)methanone] it was 420 nM; in that of `O=C(N1CCc2cc(-c3cnc4[nH]cc(C(F)(F)F)c4n3)cc([C@@H]3COCCN3)c2C1)N1C2CCC1COC2` [Compound Z584, (3-oxa-8-azabicyclo[3.2.1]octan-8-yl)(8-((R)-morpholin-3-yl)-6-(7-(trifluoromethyl)-5H-pyrrolo[2,3-b]pyrazin-2-yl)-3,4-dihydroisoquinolin-2(1H)-yl)methanone], 127 nM.
In the case of `Cc1c[nH]c2ncc(-c3cc4c(c([C@@H]5COCCN5)c3)CN(C(=O)N3CCO[C@H](C)C3)CC4)cc12` [Compound Z484, (6-(3-methyl-1H-pyrrolo[2,3-b]pyridin-5-yl)-8-((R)-morpholin-3-yl)-3,4-dihydroisoquinolin-2(1H)-yl)((R)-2-methylmorpholino)methanone] it was 364 nM.
In turn, `O=C(N1CCOCC1)N1CCc2cc(-c3cnc4[nH]cc(Cl)c4n3)cc([C@@H]3COCCN3)c2C1` [Compound Z527, (R)-(6-(7-chloro-5H-pyrrolo[2,3-b]pyrazin-2-yl)-8-(morpholin-3-yl)-3,4-dihydroisoquinolin-2(1H)-yl)(morpholino)methanone] came in with an IC50 of 164 nM.
To `O=C(N1CCc2cc(-c3cnc4[nH]cc(F)c4n3)cc([C@@H]3COCCN3)c2C1)N1CC2CCC(C1)O2` [Compound Z522, (8-oxa-3-azabicyclo[3.2.1]octan-3-yl)(6-(7-fluoro-5H-pyrrolo[2,3-b]pyrazin-2-yl)-8-((R)-morpholin-3-yl)-3,4-dihydroisoquinolin-2(1H)-yl)methanone] belongs 110 nM; to `N#Cc1c[nH]c2ncc(-c3cc4c(c([C@@H]5COCCN5)c3)CN(C(=O)N3CC5CCC(C3)O5)CC4)cc12` [Compound Z515, 5-(2-(8-oxa-3-azabicyclo[3.2.1]octane-3-carbonyl)-8-((R)-morpholin-3-yl)-1,2,3,4-tetrahydroisoquinolin-6-yl)-1H-pyrrolo[2,3-b]pyridine-3-carbonitrile], 173 nM.
In the case of `Cc1c[nH]c2ncc(-c3cc4c(c([C@@H]5COCCN5)c3)CN(C(=O)N3CC[C@@H](F)C3)CC4)cc12` [Compound Z486, ((R)-3-fluoropyrrolidin-1-yl)(6-(3-methyl-1H-pyrrolo[2,3-b]pyridin-5-yl)-8-((R)-morpholin-3-yl)-3,4-dihydroisoquinolin-2(1H)-yl)methanone] it was 153 nM.
In the case of `O=C(N1CCc2cc(-c3cnc4[nH]cc(Cl)c4c3)cc([C@@H]3COCCN3)c2C1)C1(O)CC1` [Compound Z435, (R)-(6-(3-chloro-1H-pyrrolo[2,3-b]pyridin-5-yl)-8-(morpholin-3-yl)-3,4-dihydroisoquinolin-2(1H)-yl)(1-hydroxycyclopropyl)methanone] it was 258 nM.

For the origin of these results see patent publication US20250084078A1, “FUSED RING-SUBSTITUTED SIX-MEMBERED HETEROCYCLIC COMPOUND, AND PREPARATION METHOD THEREFOR AND USE THEREOF” (GENFLEFT THERAPEUTICS (SHANGHAI) INC., priority 2022, published 2025).
